# Laboratory results reported in patent US20250011687A1, “BIODEGRADABLE CHELATING AGENTS AND METHODS FOR FABRIC CARE” (The Procter & Gamble Company, priority 2023, published 2025).
# Experiments:
# [1] = Example 3 stain removal in tergotometer wash, synthetic fabric; conditions: polyester, vs HEDP
# Source text: Image analysis may be used to compare each stain to an unstained fabric control. Software may be used to convert images taken into standard colorimetric values and to compare these to standards based on the commonly used Macbeth Color Rendition Chart, assigning each stain a colorimetric value (Stain Level). The CIELAB color space, also referred to as L*a*b*, is a color space defined by the International Commission on Illumination (abbreviated CIE) in 1976.[a] It expresses color as three values: L* for perceptual lightness and a* and b* for the four unique colors of human vision: red, green, blue and yellow. The lightness value, L* defines black at 0 and white at 100. The a* axis is relative to the green-magenta opponent colors, with negative values toward green and positive values toward magenta. The b* axis represents the blue-yellow opponents, with negative numbers toward blue and positive toward yellow. In the following examples, various fabrics were analyzed using commercially available image analysis software for L*a*b* values. SRI values were then calculated from the L*a*b* values using the formula shown. The higher the SRI, the better the stain removal. […]
# [2] = calcium binding efficiency, logK(β110); format: physicochemical; conditions: one metal, one ligand, no protons
# Source text: (§1) The binding efficiencies may be expressed as a binding constant. A binding constant (also called formation constant or stability constant) is an equilibrium constant for the formation of a complex in solution. It is a measure of the strength of the interaction between the reagents that come together to form the complex. As an example, various stains may comprise catechins as shown in Formula 13.
# (§2) The chelating agent(s) according to various embodiments may, therefore, be selected to ensure a lower binding efficiency with calcium and a higher binding efficiency with iron at the wash pH.
# (§3) In Table 1, the reaction between metals and ligands is described in terms of logK(β110). In this context, K, is the equilibrium constant for the reaction between ligands and metals. The higher K, the more metal is bound. This is illustrated in the following example.
# (§4) β, represents the binding efficiency and receives some subscripts (βmlh) to indicate how many metals (m), ligands (l), and protons (h) respectively are involved.
# [3] = iron binding efficiency, logK(β110); format: physicochemical; conditions: one metal, one ligand, no protons
# Source text: as §1, §2, §3, §4
# [4] = Example 1 stain removal in tergotometer wash, unit dose compositions at pH 7.0/8.5/10.0; conditions: treatments with pH<10.0; tropolone compared to HEDP or no chelating agent
# Source text: Image analysis may be used to compare each stain to an unstained fabric control. Software may be used to convert images taken into standard colorimetric values and to compare these to standards based on the commonly used Macbeth Color Rendition Chart, assigning each stain a colorimetric value (Stain Level). The CIELAB color space, also referred to as L*a*b*, is a color space defined by the International Commission on Illumination (abbreviated CIE) in 1976.[a] It expresses color as three values: L* for perceptual lightness and a* and b* for the four unique colors of human vision: red, green, blue and yellow. The lightness value, L* defines black at 0 and white at 100. The a* axis is relative to the green-magenta opponent colors, with negative values toward green and positive values toward magenta. The b* axis represents the blue-yellow opponents, with negative numbers toward blue and positive toward yellow. In the following examples, various fabrics were analyzed using commercially available image analysis software for L*a*b* values. SRI values were then calculated from the L*a*b* values using the formula shown. The higher the SRI, the better the stain removal. […] One dose of detergent treatment, as detailed in Table 3 below, was added to a tergotometer and was evaluated using the Washing Method.
# [5] = pKa of chelating agents and catechin (Table 1); format: physicochemical
# Source text: Chelation is a type of bonding of ions and molecules to metal ions. It involves the formation or presence of two or more separate coordinate bonds between a ligand and a metal atom. Without being bound by theory, the stain removal effectiveness of a composition comprising one or more chelating agents may depend at least in part on the ability of the chelating agent(s) to bind to iron, which may be present in some stains, such as fruit or beverage stains. Several factors may impact a chelating agent's ability to bind to iron. These factors may include the pKa of the chelating agent compared to the wash pH, and the affinity of the chelating agent to bind with other metals, materials, or compositions in the wash.
# Various embodiments may provide or employ a composition that comprises one or more chelating agents having a pKa that is less than the wash pH.
structure (smiles),measurement,setting,value
"O=c1cccccc1O [Tropolone, 2-Hydroxycyclohepta-2,4,6-trien-1-one]",stain removal on synthetics fabric (in words),[1],significantly improved stain removal
same,Ca^2+ logK(β110),[2],3.1
same,Fe (III) logK(β110),[3],10.5
same,stain removal performance (in words),[4],improved stain removal performance
Oc1cc(O)c2c(c1)OC(c1ccc(O)c(O)c1)C(O)C2 (stereo not shown) [Catechin],Ca^2+ logK(β110),[2],3.5
same,Ca^2+ logK(β110),[2]; listed as catechins,about 3.5
same,pKa,[5]; fourth listed pKa,13.4
same,pKa,[5]; second listed pKa,9.5
same,pKa,[5]; third listed pKa,11.2
same,Fe (III) logK(β110),[3],19.2
same,Fe (III) logK(β110),[3]; listed as catechins,about 19.2
"CC(O)(P(=O)(O)O)P(=O)(O)O [HEDP, 1-Hydroxyethylidene-1,1-diphosphonic acid]",Ca^2+ logK(β110),[2],6.8
same,pKa,[5]; first listed pKa,1.7
same,pKa,[5]; fourth listed pKa,10.3
same,pKa,[5]; second listed pKa,2.5
same,pKa,[5]; third listed pKa,7.3
same,Fe (III) logK(β110),[3],14.1
"CC(C)c1cccc(=O)c(O)c1 [Hinokitiol, 2-Hydroxy-6-(propan-2-yl)cyclohepta-2,4,6-trien-1-one]",stain removal on synthetics fabric (in words),[1],significantly improved stain removal
same,Ca^2+ logK(β110),[2],2.2
same,pKa,[5]; first listed pKa,about 7
same,Fe (III) logK(β110),[3],12.9
same,stain removal performance (in words),[4],improved stain removal performance
